Laboratory results reported in ChEMBL document CHEMBL1201862, “PubChem BioAssay data set” (2004).
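Compound exposure: 48 hours, 5 concentrations, 96-well plates. GI50 marks 50% less growth.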 Active and inactive are the calls of the source. Cut-off read from the data, not from the text of the source: active = GI50 up to about 1.1 µM and inactive = higher.

Tests used:
Assay in all cases: inhibition of tumour cell growth, NCI panel, 48 h
SR = system: SR
KM12 = system: KM12
SN12C = system: SN12C
SK-MEL-2 = system: SK-MEL-2
CAKI-1 = system: CAKI-1
RPMI-8226 = system: RPMI-8226
NCI-H522 = system: NCI-H522
UO-31 = system: UO-31
UACC-62 = system: UACC-62
HOP-92 = system: HOP-92
Hs-578T = system: Hs-578T
HT-29 = system: HT-29
SK-OV-3 = system: SK-OV-3
MDA-N = system: MDA-N
NCI-H23 = system: NCI-H23
HCT-116 = system: HCT-116
LOX IMVI = system: LOX IMVI
COLO 205 = system: COLO 205
OVCAR-4 = system: OVCAR-4

| SMILES | GI50 (SR) | GI50 (KM12) | GI50 (SN12C) | GI50 (SK-MEL-2) | GI50 (CAKI-1) | GI50 (RPMI-8226) | GI50 (NCI-H522) | GI50 (UO-31) | GI50 (UACC-62) | GI50 (HOP-92) | GI50 (Hs-578T) | GI50 (HT-29) | GI50 (SK-OV-3) | GI50 (MDA-N) | GI50 (NCI-H23) | GI50 (HCT-116) | GI50 (LOX IMVI) | GI50 (COLO 205) | GI50 (OVCAR-4) |
| --- | --- | --- | --- | --- | --- | --- | --- | --- | --- | --- | --- | --- | --- | --- | --- | --- | --- | --- | --- |
| COC(C(=O)NN)c1ccccc1 (configuration not stated) | > 100 µM (inactive) | > 100 µM (inactive) | > 100 µM (inactive) | > 100 µM (inactive) | > 100 µM (inactive) | > 100 µM (inactive) | > 100 µM (inactive) | > 100 µM (inactive) | > 100 µM (inactive) | > 100 µM (inactive) | > 100 µM (inactive) | > 100 µM (inactive) | > 100 µM (inactive) | > 100 µM (inactive) | > 100 µM (inactive) | – | – | – | – |
| O=c1c2c3c(sc2nc2n1N=C(c1ccc(Cl)cc1)CS2)CCCC3 | > 100 µM (inactive) | > 100 µM (inactive) | > 100 µM (inactive) | – | > 100 µM (inactive) | > 100 µM (inactive) | > 100 µM (inactive) | > 100 µM (inactive) | > 100 µM (inactive) | > 100 µM (inactive) | > 100 µM (inactive) | > 100 µM (inactive) | > 100 µM (inactive) | > 100 µM (inactive) | > 100 µM (inactive) | > 100 µM (inactive) | > 100 µM (inactive) | > 100 µM (inactive) | > 100 µM (inactive) |
| O=C1/C(=C/c2ccc(Cl)cc2)CSc2ccccc21 | 5 µM (inactive) | 10.1 µM (inactive) | 17.2 µM (inactive) | 15.7 µM (inactive) | 19.4 µM (inactive) | 2.31 µM (inactive) | – | 17.6 µM (inactive) | 3.34 µM (inactive) | 33.6 µM (inactive) | 4.57 µM (inactive) | 19.4 µM (inactive) | 31.8 µM (inactive) | 5.78 µM (inactive) | 21.3 µM (inactive) | 2.6 µM (inactive) | 2.68 µM (inactive) | 25.3 µM (inactive) | 36.1 µM (inactive) |
| Cc1nnc2n(c1=O)CCN2C | > 100 µM (inactive) | > 100 µM (inactive) | > 100 µM (inactive) | > 100 µM (inactive) | – | > 100 µM (inactive) | – | > 100 µM (inactive) | > 100 µM (inactive) | > 100 µM (inactive) | > 100 µM (inactive) | > 100 µM (inactive) | > 100 µM (inactive) | > 100 µM (inactive) | > 100 µM (inactive) | > 100 µM (inactive) | > 100 µM (inactive) | > 100 µM (inactive) | > 100 µM (inactive) |
| CC(=O)O[C@@H]1CN(S(=O)(=O)c2ccc(C)cc2)C[C@@H]1C1CCCCC1 | 23.4 µM (inactive) | 16.1 µM (inactive) | – | 17 µM (inactive) | 19 µM (inactive) | 25.5 µM (inactive) | – | 31 µM (inactive) | 16.1 µM (inactive) | 14.7 µM (inactive) | 11.5 µM (inactive) | 22.9 µM (inactive) | 62.2 µM (inactive) | 17.1 µM (inactive) | 38.5 µM (inactive) | – | 24.6 µM (inactive) | 18.5 µM (inactive) | 50.6 µM (inactive) |
| O=[N+]([O-])c1cn[n+]([O-])c2ccccc12 | 0.403 µM (active) | 5.36 µM (inactive) | 8.83 µM (inactive) | – | 2.56 µM (inactive) | 2.03 µM (inactive) | – | – | – | 12.7 µM (inactive) | 13.8 µM (inactive) | 4.65 µM (inactive) | 13.2 µM (inactive) | 13.6 µM (inactive) | 14.7 µM (inactive) | 1.24 µM (inactive) | 6.67 µM (inactive) | 13.2 µM (inactive) | – |
| O=C(O)c1ccc([N+](=O)[O-])c2cc3cnccc3nc12 | 43.2 µM (inactive) | 22.4 µM (inactive) | 16.3 µM (inactive) | 17.9 µM (inactive) | > 10 µM (inactive) | 39.7 µM (inactive) | 13.4 µM (inactive) | 23.3 µM (inactive) | 12.4 µM (inactive) | 30.1 µM (inactive) | 35 µM (inactive) | 22.6 µM (inactive) | 56.9 µM (inactive) | 20.6 µM (inactive) | 24.6 µM (inactive) | 18.4 µM (inactive) | – | 21.5 µM (inactive) | – |
| Cc1cc(C)c2nc3c(c(C(O)C4CCCCN4)c2c1)CC/C3=C\c1ccc(Cl)cc1 (configuration not stated) | 34.2 µM (inactive) | 64.3 µM (inactive) | 38.1 µM (inactive) | 64.9 µM (inactive) | 94.6 µM (inactive) | 40.7 µM (inactive) | 34 µM (inactive) | – | 65 µM (inactive) | > 100 µM (inactive) | > 100 µM (inactive) | 30.4 µM (inactive) | 74.3 µM (inactive) | 50.4 µM (inactive) | 85.9 µM (inactive) | 32 µM (inactive) | – | 41 µM (inactive) | 58.9 µM (inactive) |
